Measurements: ChEMBL document CHEMBL5244239, “Penicillin binding protein 2a: An overview and a medicinal chemistry perspective” (Eur J Med Chem, 2020)
Values after ≈ are worked out from the molar mass of the structure shown.

Key:
Staphylococcus aureus [1] = assay: Potentiation of oxacillin against methicillin resistant Staphylococcus aureus assessed as fold increase in oxacillin activity; format: functional
MecA [2] = molecular target: T1, MecA (Staphylococcus aureus, UniProt Q7DHH4); assay: Inhibition of Staphylococcus aureus PBP2a
T1 sequence (Q7DHH4 whole entry): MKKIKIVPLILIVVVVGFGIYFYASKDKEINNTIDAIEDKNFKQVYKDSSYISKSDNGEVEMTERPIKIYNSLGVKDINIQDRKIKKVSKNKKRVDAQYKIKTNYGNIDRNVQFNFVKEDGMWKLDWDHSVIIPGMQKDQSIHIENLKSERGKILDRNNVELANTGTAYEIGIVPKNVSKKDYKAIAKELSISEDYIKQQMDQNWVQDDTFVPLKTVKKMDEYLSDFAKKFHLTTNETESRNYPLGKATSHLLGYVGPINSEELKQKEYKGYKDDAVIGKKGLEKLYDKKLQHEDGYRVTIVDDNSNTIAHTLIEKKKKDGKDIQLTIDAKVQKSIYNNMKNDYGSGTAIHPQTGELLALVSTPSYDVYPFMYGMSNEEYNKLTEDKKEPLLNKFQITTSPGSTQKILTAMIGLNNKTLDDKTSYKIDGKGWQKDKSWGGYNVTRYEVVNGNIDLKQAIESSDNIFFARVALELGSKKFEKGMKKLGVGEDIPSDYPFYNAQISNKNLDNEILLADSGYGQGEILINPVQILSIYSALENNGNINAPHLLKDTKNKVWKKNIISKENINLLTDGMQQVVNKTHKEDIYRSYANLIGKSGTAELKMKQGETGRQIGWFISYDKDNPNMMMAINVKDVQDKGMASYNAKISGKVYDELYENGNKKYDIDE

[3] = Binding affinity to methicillin sensitive Staphylococcus aureus PBP2
Staphylococcus aureus [4] = assay: Antibacterial activity against methicillin resistant Staphylococcus aureus TMHS-3125; format: functional
Staphylococcus aureus [5] = assay: Antibacterial activity against methicillin resistant Staphylococcus aureus 4977; format: functional
Staphylococcus aureus [6] = assay: Antibacterial activity against methicillin resistant Staphylococcus aureus TMHS-5006; format: functional
[7] = Binding affinity to methicillin sensitive Staphylococcus aureus PBP4
Staphylococcus aureus [8] = assay: Antibacterial activity against methicillin resistant Staphylococcus aureus 13101; format: functional
[9] = molecular target: T2, Penicillin-binding protein 1 (Staphylococcus aureus, UniProt Q53725); assay: Binding affinity to methicillin sensitive Staphylococcus aureus PBP1
T2 sequence (Q53725 whole entry): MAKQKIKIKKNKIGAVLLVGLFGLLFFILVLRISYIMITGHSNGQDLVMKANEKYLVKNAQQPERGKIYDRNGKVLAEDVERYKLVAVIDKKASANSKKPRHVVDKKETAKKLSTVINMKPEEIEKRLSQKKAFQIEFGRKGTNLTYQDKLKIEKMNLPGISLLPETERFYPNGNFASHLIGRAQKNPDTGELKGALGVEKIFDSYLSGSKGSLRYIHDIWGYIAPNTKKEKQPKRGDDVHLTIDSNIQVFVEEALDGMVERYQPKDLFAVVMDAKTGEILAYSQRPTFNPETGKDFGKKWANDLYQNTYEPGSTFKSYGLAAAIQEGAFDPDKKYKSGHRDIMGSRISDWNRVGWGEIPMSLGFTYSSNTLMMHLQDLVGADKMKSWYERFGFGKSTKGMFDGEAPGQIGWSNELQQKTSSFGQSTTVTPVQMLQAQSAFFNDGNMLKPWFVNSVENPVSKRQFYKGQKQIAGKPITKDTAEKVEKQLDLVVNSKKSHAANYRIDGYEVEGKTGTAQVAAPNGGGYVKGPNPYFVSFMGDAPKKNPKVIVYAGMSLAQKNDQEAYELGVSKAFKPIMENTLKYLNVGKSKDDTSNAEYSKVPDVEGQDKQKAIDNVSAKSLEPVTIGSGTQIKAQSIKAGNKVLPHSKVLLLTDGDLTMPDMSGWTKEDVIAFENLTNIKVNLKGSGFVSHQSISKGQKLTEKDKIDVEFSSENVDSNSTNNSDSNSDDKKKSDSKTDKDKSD

Staphylococcus aureus [10] = assay: Antibacterial activity against methicillin resistant Staphylococcus aureus TMHS-5007; format: functional
[11] = Binding affinity to methicillin sensitive Staphylococcus aureus PBP3
MecA [12] = molecular target: T1, MecA; assay: Binding affinity to methicillin resistant Staphylococcus aureus PBP2a
Staphylococcus aureus [13] = assay: Antibacterial activity against methicillin resistant Staphylococcus aureus mp 1; format: functional
Staphylococcus aureus [14] = assay: Antibacterial activity against methicillin resistant Staphylococcus aureus ATCC 43300; format: functional
MecA [15] = molecular target: T1, MecA; assay: Binding affinity to Staphylococcus aureus ATCC 43300 PBP2a
Staphylococcus aureus [16] = assay: Antibacterial activity against methicillin resistant Staphylococcus aureus; format: functional
MecA [17] = molecular target: T1, MecA; assay: Displacement of [3H]-penicillin from Staphylococcus aureus PBP2a
Staphylococcus aureus [18] = assay: Potentiation of oxacillin against methicillin resistant Staphylococcus aureus OM505 assessed as fold increase in oxacillin activity; format: functional
Staphylococcus aureus [19] = assay: Potentiation of oxacillin against methicillin resistant Staphylococcus aureus OM623 assessed as fold increase in oxacillin activity; format: functional
Staphylococcus aureus [20] = assay: Potentiation of oxacillin against methicillin resistant Staphylococcus aureus OM584 assessed as fold increase in oxacillin activity; format: functional
Staphylococcus aureus [21] = assay: Potentiation of oxacillin against methicillin resistant Staphylococcus aureus OM481 assessed as fold increase in oxacillin activity; format: functional
Staphylococcus aureus [22] = assay: Antibacterial activity against methicillin resistant Staphylococcus aureus PL 1; format: functional
Staphylococcus aureus [23] = assay: Antibacterial activity against methicillin sensitive Staphylococcus aureus ATCC 29213; format: functional

## C=C1CCC[C@@H]2Nc3ccc(Br)cc3[C@]12CCNS(=O)(=O)c1ccc(Cl)cc1
Staphylococcus aureus [1]
  fold change (FC): 128

## CC1(C)S[C@@H]2[C@H](N)C(=O)N2[C@H]1C(=O)O
MecA [2]
  IC50: 7000 µM

## CCO/N=C(\C(=O)N[C@@H]1C(=O)N2C(C(=O)[O-])=C(Sc3nc(-c4cc[n+](C)cc4)cs3)CS[C@H]12)c1nsc(N)n1 [CEFTAROLINE]
[3]
  IC50: 0.1 µg/mL (≈ 0.165 µM)
Staphylococcus aureus [4]
  MIC: > 32 µg/mL
Staphylococcus aureus [5]
  MIC: 2 µg/mL (≈ 3.31 µM)
Staphylococcus aureus [6]
  MIC: > 32 µg/mL
[7]
  IC50: > 1 µg/mL
Staphylococcus aureus [8]
  MIC: 2 µg/mL (≈ 3.31 µM)
[9]
  IC50: 0.165 µM
Staphylococcus aureus [10]
  MIC: > 32 µg/mL
[11]
  IC50: 0.1 µg/mL (≈ 0.165 µM)
MecA [12]
  IC50: 0.265 µM

## CCCOc1cccc(C(=O)Nc2ccc(Br)cc2C(=O)O)c1
Staphylococcus aureus [13]
  MIC: 32 µg/mL (≈ 84.6 µM)
Staphylococcus aureus [14]
  MIC: 32 µg/mL (≈ 84.6 µM)
MecA [15]
  IC50: 230 µM

## C[C@@H](O)[C@H]1C(=O)N2C(C(=O)[O-])=C(c3ccc4c(c3)-c3ccc(C[n+]5ccn(C)c5)cc3C4=O)[C@H](C)[C@H]12
Staphylococcus aureus [16]
  MIC: 16 µg/mL (≈ 33.1 µM)
MecA [17]
  IC50: 2.48 µM

## O=C(O[C@@H]1O[C@@H]2COC(=O)c3cc(O)c(O)c(O)c3-c3c(cc(O)c(O)c3O)C(=O)O[C@H]([C@H]1O)[C@@H]2O)c1cc(O)c(O)c(O)c1 [CORILAGIN]
Staphylococcus aureus [18]
  fold change (FC): 100
Staphylococcus aureus [19]
  fold change (FC): 100
Staphylococcus aureus [20]
  fold change (FC): 100
Staphylococcus aureus [21]
  fold change (FC): 100

## C#Cc1ccc(/C=C/c2nc3ccccc3c(=O)n2-c2cccc(C(=O)O)c2)cc1
Staphylococcus aureus [16]
  MIC: 0.03 µg/mL (≈ 0.0764 µM)

## C[C@@H](NC(=O)c1c(F)cccc1-c1ccccc1)B(O)O
Staphylococcus aureus [14]
  MIC: 32 µg/mL (≈ 111 µM)
Staphylococcus aureus [22]
  MIC: 32 µg/mL (≈ 111 µM)

## O=c1c2ccccc2nc(/C=C/c2ccc([N+](=O)[O-])cc2)n1-c1cccc(O)c1
Staphylococcus aureus [23]
  MIC: 2 µg/mL (≈ 5.19 µM)

## CCCOc1ccc2cc(C(=O)Nc3ccc(Br)cc3C(=O)O)ccc2c1
Staphylococcus aureus [13]
  MIC: 128 µg/mL (≈ 299 µM)
Staphylococcus aureus [14]
  MIC: 128 µg/mL (≈ 299 µM)
MecA [15]
  IC50: 210 µM
